Results as given in patent US20170369887A1, “Therapeutic compositions for breast cancer containing protein kinase D1 inhibitor” (SOOKMYUNG WOMEN'S UNIVERSITY INDUSTRY ACADEMIC COOPERATION …, priority 2016, published 2017).

Legend:
MCF-7-ADR cells [1] = test: Cell survival rate, WST-8 assay, MCF-7-ADR; format: cell-based, human
Description: […] Cell survival rate was analyzed by WST-8 assay (Sigma-Aldrich) and an optical density was measured at 450 nm using a microplate reader.

MCF-7-ADR cells [2] = test: Annexin V and propidium iodide (PI) staining; format: cell-based, human; conditions: FIG. 4E
GSK3/β-catenin signaling [3] = test: Western blot of PKD/PKCμ phosphorylation and GSK3/β-catenin signaling in MCF-7-ADR cells; format: cell-based, human; conditions: 1 μM or 5 μM, FIG. 3A
Description: CRT0066101 was purchased from R&D Systems (Minneapolis, Minn., USA); this drug was resuspended in sterile distilled water and used for in vivo studies. To treat CRT0066101, MCF-7-ADR cells (American Type Culture Collection, Manassas, Va., USA) were seeded and 0.1 to 10 μM CRT0066101 was added and incubated for 1 hour. WST-8 was purchased from Enzo Life Sciences, Inc. (Farmingdale, N.Y., USA). PRKD1 siRNA and scrambled siRNA (Santa Cruz Biotechnology, Santa Cruz, Calif., USA) were transfected by using Lipofectamine RNAiMAX (Invitrogen, Carlsbad, Calif., USA).
(§1) A total of 30 μg of a protein extract was isolated by 8% SDS-PAGE and the protein was electrophoretically transferred to a PVDF membrane. The primary antibodies used were phosphorylated PKD/PKCμ (Ser916), GSK3β, phosphorylated GSK3α (Ser21)/β (Ser9), and β-catenin. These antibodies were purchased from Cell Signaling Technology (Danvers, Mass., USA) and the PKD/PKCμ antibody was purchased from Santa Cruz Biotechnology. (β-actin (Bethyl Laboratories, Montgomery, Tex., USA) was used as a loading control. The membrane was washed with 1×PBS/0.1% Tween 20 and the bound proteins were detected with an enhanced chemiluminescent reagent (Amersham Pharmacia Biotech, Parsippany, N.J., USA).

MCF-7-ADR cells [4] = test: CD44+/CD24− surface marker analysis using flow cytometry; format: cell-based, human; conditions: 1 μM, FIG. 3C
Description: Cells were collected after transfection with RNAi of PRKD1 or CRT0066101 treatment and expression of CD44 +/CD24-surfaces was evaluated. The cells were washed with 2% FBS, stained with anti-CD44 (APC-conjugated; BD Biosciences) and anti-CD24 (BD Biosciences) in a PBS containing 2% FBS, and placed on ice in the dark for 30 minutes. The cells were washed again with a cold PBS buffer, loaded with >10,000 cells in a BD CantoII flow cytometer (BD Biosciences), and then analyzed by flow cytometry using FACSDiVa software (BD Biosciences).

[5] = biological target: T1, PRKD1 autophosphorylation (Homo sapiens, UniProt Q15139); conditions: reference [16]; cited from earlier work
T1 sequence (Q15139 1-912): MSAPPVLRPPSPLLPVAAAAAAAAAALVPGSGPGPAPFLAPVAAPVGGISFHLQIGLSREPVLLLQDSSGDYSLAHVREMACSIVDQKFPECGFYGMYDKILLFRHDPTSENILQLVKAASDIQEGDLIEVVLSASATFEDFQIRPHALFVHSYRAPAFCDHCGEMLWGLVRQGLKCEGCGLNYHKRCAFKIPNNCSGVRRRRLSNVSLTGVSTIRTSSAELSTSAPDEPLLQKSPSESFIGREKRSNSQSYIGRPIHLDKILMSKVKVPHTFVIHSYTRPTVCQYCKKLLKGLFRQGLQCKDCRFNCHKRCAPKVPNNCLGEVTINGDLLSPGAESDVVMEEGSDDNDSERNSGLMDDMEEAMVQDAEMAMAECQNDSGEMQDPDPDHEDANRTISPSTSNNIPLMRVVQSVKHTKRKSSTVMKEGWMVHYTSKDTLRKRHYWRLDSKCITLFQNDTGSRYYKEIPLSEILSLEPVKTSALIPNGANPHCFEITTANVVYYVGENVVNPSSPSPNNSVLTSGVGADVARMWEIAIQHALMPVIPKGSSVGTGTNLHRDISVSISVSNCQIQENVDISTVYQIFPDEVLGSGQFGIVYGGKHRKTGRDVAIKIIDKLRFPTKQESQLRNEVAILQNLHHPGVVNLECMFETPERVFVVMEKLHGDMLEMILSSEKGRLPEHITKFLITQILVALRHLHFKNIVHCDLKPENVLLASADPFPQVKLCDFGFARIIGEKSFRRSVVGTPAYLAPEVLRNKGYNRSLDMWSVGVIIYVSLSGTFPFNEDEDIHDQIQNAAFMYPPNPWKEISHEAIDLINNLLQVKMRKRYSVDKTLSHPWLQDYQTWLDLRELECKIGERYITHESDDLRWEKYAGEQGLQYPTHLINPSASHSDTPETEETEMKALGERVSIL

MCF-7-ADR cells [6] = test: Tumorsphere formation assay (TSA); format: cell-based, human; conditions: 1 μM or 5 μM, vs control, FIG. 3B
Description: For incubation of tumorspheres, cells (2000 cells/mL) were suspended and incubated in serum-free DMEM/F12 (welGENE) containing 1% penicillin, B27 (1:50; Gibco; Thermo Fisher), 20 ng/mL of an epidermal growth factor (Prospec, East Brunswick, N.J., (WelGENE) […] of insulin (Sigma-Aldrich, St. Louis, Mo., USA) and 0.4% bovine serum albumin (Sigma-Aldrich). After about 10 days, the plate was analyzed and formation of tumorspheres was verified and quantified with a microscope (Olympus IX71; Olympus, Tokyo, Japan). In order to count the number of tumorspheres, MCF-7-ADR cells were filtered and quantified by a strainer (BD Biosciences, East Rutherford, N.J., USA) having a pore size of 70 μm. Treatment with CRT0066101 was performed on 6-th day and 8-th day after incubation.

GSK3/β-catenin signaling [7] = test: Western blot of GSK3/β-catenin signaling in MCF-7 cells; format: cell-based, human; conditions: FIG. 12A
Description: as §1

MCF-7-ADR cells [8] = test: MCF-7-ADR xenograft in nude mice treated with CRT0066101; format: in vivo, mouse
Description: A control or miR-32a overexpressed tumor and a carrier or CRT0066101 treated tumor were cut and paraffin-treated slides were used. The paraffin was removed from the slides, rehydrated 3 to 4 times in Histoclear, and then passed sequentially through ethanol at different concentrations (100%, 95%, 80%, and 70%). Antigen reconstitution was performed by immersing fragments in a 0.01M citric acid solution (pH 6.0) and boiling the fragments in a microwave for 15 minutes. In the case of TUNEL analysis, an in-situ apoptosis detection kit, a fluorescent material (Roche, Indianapolis, USA) labeled apoptotic cells, and a Ki-67 primary antibody (Vector Lab, USA) were applied to the fragments and incubated at 4° C. overnight. Thereafter, the slides were incubated with DAPI and secondary antibody for two hours. Finally, the slides were treated with a mounting solution (Dako) and a photograph was taken with a confocal microscope (Zeiss).
All studies, including the use of nude mice, were approved by the committee on animal protection and use of the Yonsei University Medical center (2015-0087) and performed under conditions according to facilities without specific pathogens and the guideline of the committee. Mice were anesthetized with 150 μl saline/zoletil/rompun (7:1:1) outside each femoral region and subcutaneously injected with 1.5×10^6 of MCF-7-ADR cells. Six mice were randomly grouped and started to be treated from 10-th day after tumor graft. […] The tumor size was measured every 3 to 4 days using a caliper from formation of touched tumor to termination and the tumor volume was calculated by Equation of length×width^2×0.5236. The mice were sacrificed in a 7.5% CO2 chamber and tumors were isolated and used for immunohistochemistry and other assays.

MCF-7 cells = test: Cell survival rate, WST-8 assay, MCF-7; format: cell-based, human; conditions: 0.1 to 5 μM, FIG. 12B
[9] = treated tumor vs control, FIG. 5G

SMILES | cell survival rate (MCF-7-ADR cells [1]; MCF-7-ADR cells exposed to doxorubicin at different doses, FIG. 4A) | initiation of apoptosis (MCF-7-ADR cells [2]; treated cells vs control) | phosphorylation of PKD/PKCμ and GSK3/β-catenin (GSK3/β-catenin signaling [3]) | number (Q1) of CD44+/CD24− (MCF-7-ADR cells [4]) | growth of pancreatic cancer [5] | number of tumorspheres (>70 μm) (MCF-7-ADR cells [6]) | cell survival rate (MCF-7-ADR cells [1]; MCF-7-ADR cells, 0.1 to 5 μM, FIG. 4C) | cell survival rate, combination with doxorubicin (MCF-7-ADR cells [1]; MCF-7-ADR, CRT0066101 combined with doxorubicin, vs CRT0066101 alone, FIG. 4D) | level of apoptosis in doxorubicin-treated cells (MCF-7-ADR cells [2]; CRT0066101 added to doxorubicin-treated cells) | GSK3/β-catenin signaling (GSK3/β-catenin signaling [7]) | side effects (sign of toxicity, weight loss) (MCF-7-ADR cells [8]; 65 mg/kg daily for 4 weeks, all animals, FIG. 5E) | tumor size (MCF-7-ADR cells [8]; 65 mg/kg daily for 4 weeks, oral, vs untreated control, FIG. 5D) | tumor weight (MCF-7-ADR cells [8]; 65 mg/kg daily for 4 weeks, vs control tumor, FIG. 5E) | change in mouse's weight (MCF-7-ADR cells [8]; 65 mg/kg orally daily for 4 weeks, FIG. 5E) | volume of tumor (MCF-7-ADR cells [8]; 65 mg/kg orally daily for 4 weeks, vs control tumor, FIG. 5E) | apoptosis in tumor, TUNEL analysis (MCF-7-ADR cells [8]; [9]) | proliferation in tumor, Ki-67 staining (MCF-7-ADR cells [8]; [9]) | phosphorylated PKD/PKCμ through GSK3/β-catenin signaling in tumor (MCF-7-ADR cells [8]; western blot of tumor, FIG. 5F) | cell survival rate (MCF-7 cells)
COc1cccc2c1C(=O)c1c(O)c3c(c(O)c1C2=O)C[C@@](O)(C(=O)CO)C[C@@H]3O[C@H]1C[C@H](N)[C@H](O)[C@H](C)O1 [doxorubicin] | reduced dose-dependently | increased | – | – | – | – | – | – | – | – | – | – | – | – | – | – | – | – | –
CC[C@@H](N)CNc1ccnc(-c2cc(-c3cnn(C)c3)ccc2O)n1.Cl.Cl [CRT0066101] | – | – | inhibited | also decreased | blocked growth | decreased dose-dependently | decreased cell survival rate dose-dependently | significantly lowered | increased | not affected | did not cause side effects | reduced | reduced | not detected | reduced | apoptosis increased | proliferation decreased | down regulation | did not decrease
